Experimental data from paper PMC11988800, “A Comprehensive In Vitro and In Silico Approach for Targeting 4-Hydroxyphenyl Pyruvate Dioxygenase: Towards New Therapeutics for Alkaptonuria” (International Journal of Molecular Sciences, 2025).
Like-named read-outs stand apart in the source and are kept apart here.

Experiments:
human 4-HPPD [1] = target: T1, human 4-HPPD (Homo sapiens, UniProt P32754); assay: Inhibition assay (IC50/IC90): ochronotic pigment formation in recombinant E. coli expressing human 4-HPPD
T1 sequence (P32754 whole entry): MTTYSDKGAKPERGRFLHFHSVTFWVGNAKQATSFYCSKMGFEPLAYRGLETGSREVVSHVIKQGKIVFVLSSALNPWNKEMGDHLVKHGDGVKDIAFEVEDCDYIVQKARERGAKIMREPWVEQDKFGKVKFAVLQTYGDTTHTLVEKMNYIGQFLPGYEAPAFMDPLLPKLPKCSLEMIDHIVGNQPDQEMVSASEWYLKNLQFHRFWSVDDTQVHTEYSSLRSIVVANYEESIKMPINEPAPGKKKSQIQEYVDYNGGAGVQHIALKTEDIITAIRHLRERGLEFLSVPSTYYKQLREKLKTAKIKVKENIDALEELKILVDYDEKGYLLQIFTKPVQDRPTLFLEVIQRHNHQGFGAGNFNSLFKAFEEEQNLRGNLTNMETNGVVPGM
Experimental: To do so, an inhibition assay was set up to test the compounds at different concentrations. The bacterial suspension was incubated in a medium containing 1 mM IPTG, 75 µM Tyr, and the tested inhibitor, monitoring the formation of the ochronotic pigment at 405 nm after 24 h.
The pre-inoculum was prepared in LB medium (Lysogeny Broth) supplemented with glucose (1% final concentration) and kanamycin sulfate (50 µg/mL final concentration). […] The pre-inoculum was incubated overnight at 37 °C under agitation. After measuring the OD600 of the pre-inoculum using LB medium as a blank, it was diluted to a final optical density of 0.1 in LB medium supplemented with kanamycin (LBK). The cell culture was shaken at 37 °C, and the OD600 was measured every 45 min until reaching the mid-log phase (0.6–0.8). Protein expression was then induced by adding isopropyl-β-D-thiogalactopyranoside (IPTG) [26, 27, 28].
Briefly, serial dilutions of the inhibitors were prepared in 96-deep well standard plates, starting from a stock solution of 10^−2 M, and then 600 µL of bacterial suspension (see Section 4.1.1) supplemented with 1 mM IPTG and 75 µg/mL Tyr were added into each well.
In parallel, the control tests were set up as follows: • - Blank: culture medium without cell suspension. • - Negative control: cell suspension without IPTG and Tyr. • - Not-Inhibited control: cell suspension supplemented with 1 mM IPTG and 75 µg/mL Tyr.
The plate was incubated on a microplate shaker at 800 rpm for 24 h.
The plates were centrifuged at 3200× g for 10 min at 4 °C. Subsequently, 150 μL of supernatant (pigmented medium) was transferred to a 96-well standard plate, and the absorbance was measured at 405 nm using a multimode plate reader (EnVision 2105, PerkinElmer Inc., Waltham, MA, USA). GraphPad Prism 8 was used to perform a nonlinear regression analysis (Log[Inhibitor] vs. response—Variable slope (four parameters)) and to obtain the inhibition curve of the compounds.

human 4-HPPD [2] = target: T1, human 4-HPPD; assay: Residence time evaluation by optimized jump dilution method in recombinant E. coli expressing human 4-HPPD
Experimental: (§1) 4-HPPD was initially incubated with each compound at saturating concentrations, and the exhaust medium (containing the inhibitor) was removed and replaced with fresh medium without the inhibitor, while the precursor (tyrosine) was added to the substrate. Enzyme activity was monitored by measuring the formation of ochronotic pigment consequent to the formation of HGA. Each inhibitor was analyzed in duplicate, and the analyses were repeated at least three times. In each experiment, control tests were set up as follows: a blank (control without induction), a control without inhibition, and a control with inhibition.
(§2) An optimized version of the jump dilution method was employed to evaluate the residence time of the novel candidate 4-HPPD inhibitors. […] This approach allowed precise tracking of reaction kinetics with high temporal resolution. After determining the IC50 and IC90 values for each tested compound, the enzyme was incubated with the inhibitors at concentrations corresponding to IC90. The exhaust medium containing the inhibitor was subsequently replaced with a fresh and inhibitor-free medium supplemented with tyrosine, the substrate precursor. The recovery of enzymatic activity was monitored over time using spectrophotometric analysis. This analytical approach provided precise measurements of the residence time for each inhibitor.
(§3) Each test was performed in duplicate, and the experiments were replicated at least three times. The tubes were half-capped and stirred at room temperature overnight.
(§4) The tubes were centrifuged at 2500× g for 10 min at 20 °C. The supernatant (exhaust medium) was discarded, while the pellet was resuspended in 7 mL of fresh LBK medium.
(§5) The tubes were incubated at 37 °C with stirring after taking the first sample (T0). Then, every 45 min for a period of 8 h, 220 μL were taken from each tube and placed in an Eppendorf tube, which was centrifuged at 13,000× g for 5 min at 4 °C. Subsequently, 200 μL of supernatant (pigmented medium) from each Eppendorf tube was transferred to a 96-well standard plate, and the absorbance at 405 nm was measured using a multimode plate reader (EnVision 2105, PerkinElmer Inc., Waltham, MA, USA).
(§6) Linear regression analysis was performed to calculate the slope values for each of the two curves corresponding to vs and v0 . These two parameters were then substituted into the equation below and reported for the nonlinear regression analysis of the data related to the tested compounds: Y=vsX+v0−vs /K (1−e^−KX) • Y: Absorbance value (HGA accumulation); • X: time (min); • vs : steady-state velocity; • v0: initial velocity; • K: koff .

human 4-HPPD [3] = target: T1, human 4-HPPD
Experimental: as §1, §2, §3, §4, §5, §6

SMILES: CS(=O)(=O)c1ccc(C(=O)C2C(=O)CCCC2=O)c([N+](=O)[O-])c1 [c1, mesotrione]
- IC90 (human 4-HPPD [1]): 2 µM
- koff (human 4-HPPD [2]): 6.67e-05 s⁻¹
- residence time (human 4-HPPD [2]): 228 ± 27.6 min
- residence time (τ) (human 4-HPPD [2]; derived from koff): higher residence time value than NTBC

SMILES: CS(=O)(=O)c1ccc(C(=O)C2C(=O)CCCC2=O)c(Cl)c1COCC(F)(F)F [c2, tembotrione]
- IC90 (human 4-HPPD [1]): 0.5 µM
- half-life (t 1/2) (human 4-HPPD [3]): 1.0852 ± 0.27142 h
- koff (human 4-HPPD [2]): 0.000183 s⁻¹
- residence time (human 4-HPPD [2]): 94 ± 23.5 min

SMILES: CS(=O)(=O)c1ccc(C(=O)C2C(=O)CCCC2=O)c(Cl)c1 [c3, Sulcotrione]
- IC90 (human 4-HPPD [1]): 0.2 µM
- half-life (t 1/2) (human 4-HPPD [3]): 1.3911 ± 0.66537 h
- koff (human 4-HPPD [2]): 0.000167 s⁻¹
- residence time (human 4-HPPD [2]): 120 ± 57.6 min
- residence time (τ) (human 4-HPPD [2]): higher residence time value than NTBC

SMILES: CC1(C)CC(=O)C(C(=O)c2ccc([N+](=O)[O-])cc2Cl)C(=O)C1 [c4, 5,5-dimethylcyclohexane-2-(2-chloro-4-nitrobenzoyl)-1,3-dione]
- half-life (t 1/2) (human 4-HPPD [3]): 1.4964 ± 0.23042 h

SMILES: CC1(C)CC(=O)C(C(=O)c2ccc(C(F)(F)F)cc2[N+](=O)[O-])C(=O)C1 [c5, 5,5-dimethyl-2-(2-nitro-4-(trifluoromethyl)benzoyl)cyclohexane-1,3-dione]
- IC90 (human 4-HPPD [1]): 8 µM
- koff (human 4-HPPD [2]): 5e-05 s⁻¹
- residence time (human 4-HPPD [2]): 352 ± 53.1 min
- residence time (τ) (human 4-HPPD [2]; derived from koff): higher residence time value than NTBC

SMILES: O=C1CCCC(=O)C1C(=O)c1ccc([N+](=O)[O-])cc1Cl [c6, 2-(2-chloro-4-nitrobenzoyl)1,3-cyclohexanedione]
- IC90 (human 4-HPPD [1]): 8 µM
- koff (human 4-HPPD [2]): 0.000133 s⁻¹
- residence time (human 4-HPPD [2]): 119 ± 4.87 min
- residence time (τ) (human 4-HPPD [2]; derived from koff): higher residence time value than NTBC

SMILES: CC1(C)CC(=O)C=C(OC(=O)c2ccc(C(F)(F)F)cc2Cl)C1 [c7, 5,5-dimethyl-3-oxocyclohexenyl 2-chloro-4-(trifluoromethyl) benzoate]
- half-life (t 1/2) (human 4-HPPD [3]): 0.3749 ± 0.04297 h
